Source: EP2695874A1, “Myrtucommulone analogues” (Universität des Saarlandes, priority 2012, dated 2014)
pEC50, pIC50: −log10 of the molar value.

Assays:
Cell lines = experiment: Determination of cell viability by MTT assay (apoptose induction); type: cell-based; settings: cell line not given, read-out: Apoptose induction (EC50 in µmol l^-1)
Protocol: Example 11 - Determination of cell viability by MTT assay
(I. Tretiakova, D. Blaesius, L. Maxia, S. Wesselborg, K. Schulze-Osthoff, J CinatlJr., M. Michaelis, O. Werz, Apoptosis 2008, 13, 119-131.)
Cell viability was assessed using the MTT assay. Cell lines were incubated at 37°C and 5% CO2 atmosphere with the indicated additives for 5 days. PBMC were treated for 40 h and in some experiments, MM6 cells were only treated for 24 h. DMSO was used as solvent never exceeding 0.5% (vol/vol). Then, MTT reagent was added for 4 h. Thereafter, 100 II SDS solution (20% SDS in a 1:1 (vol by vol) dimethylformamide/ water solution) was added for 4 h. Plates were read on a multiwell scanning spectrophotometer (Victor3 plate reader, PerkinElmer, Rodgau-Juegesheim, Germany) at a wavelength of 620 nm and a reference wavelength of 690 nm. Induction of cell death was determined as the relative reduction of the optical density.

mPGES-1 = molecular target: T1, mPGES-1 (Homo sapiens, UniProt O14684); experiment: Determination of PGE2 synthase activity in microsomes of A549 cells; type: biochemical; settings: PGH2 substrate, 15 min preincubation at 4°C, read-out: mPGES-1 (IC50 in µmol l^-1)
T1 construct: Determination of PGE2 synthase activity in microsomes of A549 cells; endogenous in cells; host or cells: A549 cells (microsomal membranes)
T1 sequence (O14684 1-152): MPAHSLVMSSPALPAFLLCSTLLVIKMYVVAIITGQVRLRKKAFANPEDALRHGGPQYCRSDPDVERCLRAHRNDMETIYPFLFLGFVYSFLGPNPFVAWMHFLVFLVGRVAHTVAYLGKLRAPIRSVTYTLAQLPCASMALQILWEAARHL
Protocol: Example 9 - Determination of PGE2 synthase activity in microsomes of A549 cells
(A. Koeberle, F. Pollastro, H. Northoff and O. Werz, Br. J. Pharmacol. 2009, 156, 952-961.)
Microsomal membranes were diluted in potassium phosphate buffer (0.1 mol·1^-1, pH 7.4) containing 2.5 mmol·l^-1 glutathione.
Test compounds or vehicle were added, and after 15 min at 4°C the reaction ([…]) was initiated by addition of PGH2 ([…], final concentration). After 1 min at 4°C, the reaction was terminated by using stop solution (100 ml; 40 mmol·l^-1 FeCl2, 80 mmol·l^-1 citric acid and 10 mmol·l^-1 of 11b-PGE2). PGE2 was separated by solid phase extraction on reversed phase (RP)-C18 material by using acetonitrile (200 ml) as eluent, and analysed by RP-HPLC (30% acetonitrile in water + 0.007% TFA (v,v), Nova-Pak® C18 column, 5 x 100 mm, 4 mm particle size, flow rate 1 m-·min^-1) with UV detection at 195 nm. 11b-PGE2 was used as internal standard to quantify PGE2 product formation by integration of the area under the peaks.

5-LO [1] = molecular target: T2, 5-LO (Homo sapiens, UniProt P09917); experiment: 5-LO product formation of purified 5-LO enzyme (cell-free assay); type: biochemical; settings: 10 µM AA, 2 mM CaCl2, read-out: 5-LO cell-free assay (IC50 in µmol l^-1)
T2 sequence (P09917 1-674): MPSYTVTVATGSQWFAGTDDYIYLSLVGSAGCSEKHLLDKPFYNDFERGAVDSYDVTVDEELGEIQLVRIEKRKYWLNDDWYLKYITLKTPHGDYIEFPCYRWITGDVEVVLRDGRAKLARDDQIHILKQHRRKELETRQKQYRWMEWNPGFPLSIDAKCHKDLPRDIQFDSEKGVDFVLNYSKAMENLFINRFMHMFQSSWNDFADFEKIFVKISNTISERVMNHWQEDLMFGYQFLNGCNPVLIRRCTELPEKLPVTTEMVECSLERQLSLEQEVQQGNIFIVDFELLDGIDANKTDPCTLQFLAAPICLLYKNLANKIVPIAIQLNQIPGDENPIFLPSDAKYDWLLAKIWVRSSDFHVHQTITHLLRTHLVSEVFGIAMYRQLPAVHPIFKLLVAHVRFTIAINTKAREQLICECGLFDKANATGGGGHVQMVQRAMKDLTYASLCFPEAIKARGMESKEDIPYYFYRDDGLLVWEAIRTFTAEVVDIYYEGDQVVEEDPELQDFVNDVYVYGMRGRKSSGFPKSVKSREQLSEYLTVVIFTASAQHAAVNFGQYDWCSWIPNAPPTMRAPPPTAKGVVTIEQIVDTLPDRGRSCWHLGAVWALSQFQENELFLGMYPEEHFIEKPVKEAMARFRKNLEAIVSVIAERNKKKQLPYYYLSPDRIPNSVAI
Protocol: (§1) To assay 5- and 15-lipoxygease (LO) product formation in intact cells, 7.5 x 10^6 freshly isolated PMNLs were finally resuspended in 1 ml of PGC buffer. After preincubation with the test compounds for 10 min at 37°C, the reaction was started by the addition of 1 µM ionomycin plus 20 µM AA. After 10 min at 37°C, the reaction was stopped with 1 ml of methanol and 30 µl of 1 N HCl, and 200 ng of prostaglandin B1 and 500 µl of PBS were added. Formed AA metabolites were extracted and analyzed by HPLC. To determine product formation of purified 5-LO enzyme, 5-LO protein (0.1 µg in 10 µl) was added to 990 µl of PBS containing 1 mM EDTA and 1 mM ATP on ice and the indicated compounds were added. After 5 to 10 min on ice, the samples were preincubated for 30 s at 37°C and CaCl2 and AA (2 mM and 10 µM, respectively) were added to start the 5-LO reaction. After 10 min, the incubation was terminated and 5-LO product formation was determined as described for the intact cells.

5-LO [2] = molecular target: T2, 5-LO; experiment: 5-LO product formation in intact PMNLs (cell-based assay); settings: 1 µM ionomycin plus 20 µM AA, read-out: 5-LO cell-based assay (IC50 in µmol l^-1)
Protocol: as §1

Row | SMILES | pEC50 (Cell lines) | pIC50 (mPGES-1) | pIC50 (5-LO [1]) | pIC50 (5-LO [2])
1 | CC(C)CC(=O)c1c(O)c(C(C2=C(O)c3ccccc3C2=O)C(C)C)c(O)c(C(C2=C(O)c3ccccc3C2=O)C(C)C)c1O (centres unmarked) [Compound (Ic), 2,2'-(1,1'-(2,4,6-Trihydroxy-5-(3-methylbutanoyl)-1,3-phenylene)bis(2-methylpropane-1,1-diyl))bis(3-hydroxy-1H-inden-1-one)] | < 4.52 | 6.74 | 6.52 | 5.98
2 | CC(C)CC(=O)c1c(O)c(C(C2=C(O)c3ccccc3C2=O)c2ccccc2)c(O)c(C(C2=C(O)c3ccccc3C2=O)c2ccccc2)c1O (racemic) [(If), 2,2'-(2,4,6-Trihydroxy-5-(3-methylbutanoyl)-1,3-phenylene)bis(phenylmethylene)bis(3-hydroxy-1H-inden-1-one)] | < 4.52 | 6.72 | 6.34 | 6.16
3 | CC(C)C(C1=C(O)c2ccccc2C1=O)c1c(O)c(C(=O)c2ccccc2)c(O)c(C(C2=C(O)c3ccccc3C2=O)C(C)C)c1O (centres unmarked) [Compound (Id), 2,2'-(1,1'-(5-Benzoyl-2,4,6-trihydroxy-1,3-phenylene)bis(2-methylpropane-1,1-diyl))bis(3-hydroxy-1H-inden-1-one)] | < 4.52 | 6.17 | 5.16 | 5.49
4 | O=C1C(C(c2ccccc2)c2c(O)c(C(=O)c3ccccc3)c(O)c(C(C3=C(O)c4ccccc4C3=O)c3ccccc3)c2O)=C(O)c2ccccc21 (racemic) [(Ih), 2,2'-(5-Benzoyl-2,4,6-trihydroxy-1,3-phenylene)bis(phenylmethylene)bis(3-hydroxy-1H-inden-1-one)] | < 4.52 | 6.48 | 5.52 | 6.08
5 | CCCCCC(=O)c1c(O)c(C(C2=C(O)c3ccccc3C2=O)C(C)C)c(O)c(C(C2=C(O)c3ccccc3C2=O)C(C)C)c1O (centres unmarked) [Compound (Ib), 2,2'-(1,1'-(5-Hexanoyl-2,4,6-trihydroxy-1,3-phenylene)bis(2-methylpropane-1,1-diyl))bis(3-hydroxy-1H-inden-1-one)] | < 4.52 | 7.10 | 5.76 | 5.84
6 | CC(C)C(=O)c1c(O)c(C(C2=C(O)c3ccccc3C2=O)C(C)C)c(O)c(C(C2=C(O)c3ccccc3C2=O)C(C)C)c1O (centres unmarked) [Compound (Ia), 2,2'-(1,1'-(2,4,6-Trihydroxy-5-isobutyryl-1,3-phenylene)bis(2-methylpropane-1,1-diyl))bis(3-hydroxy-1H-inden-1-one)] | < 4.52 | 6.52 | 5.55 | 5.17
7 | CCCCCC(=O)c1c(O)c(C(C2=C(O)c3ccccc3C2=O)c2ccccc2)c(O)c(C(C2=C(O)c3ccccc3C2=O)c2ccccc2)c1O (racemic) [Compound (Ig), 2,2'-(5-Hexanoyl-2,4,6-trihydroxy-1,3-phenylene)bis(phenylmethylene)bis(3-hydroxy-1H-inden-1-one)] | < 4.52 | 6.41 | 5.96 | 5.68
8 | CC(C)C(=O)c1c(O)c(C(C2=C(O)c3ccccc3C2=O)c2ccccc2)c(O)c(C(C2=C(O)c3ccccc3C2=O)c2ccccc2)c1O (racemic) [Compound (Ie), 2,2'-(2,4,6-Trihydroxy-5-isobutyryl-1,3-phenylene)bis(phenylmethylene)bis(3-hydroxy-1H-inden-1-one)] | < 4.52 | 6.26 | 6.14 | 6.21
